Reference: patent US10894021B2, “Compositions of xanthorrhizol and tocochromanol (tocotrienol), and methods of use” (American River Nutrition, LLC, priority 2017, dated 2021)
pIC50: −log10 of the molar value. Read-outs that look alike come from different tables or passages of the source.

Experiments:
[1] = system: murine B16 melanoma cells; experiment: Cell growth assay, murine B16 melanoma cells (CellTiter 96 Aqueous One, 48 h); type: cell-based; settings: for suppression of the growth of B16 cells: P>0.05
Procedure: (§1) Cultures of cells, seeded in 0.1 mL medium with a density of 1,500 DU145 cells/well or 1,200 B16 cells/well in a 96-well plate, were incubated for 24 h at 37° C. in a humidified atmosphere of 5% CO2. At 24 h, the medium was decanted from each well and replaced with 0.1 mL fresh medium containing different concentrations of the test agents. Incubation continued for additional 48 h (B16) or 72 h (DU145). Following a quick rinse with 0.1 mL Hank's Balanced Salt Solution (HBSS), the 48-h (B16) or 72-h (DU145) cell populations were determined by adding 20 μL of CellTiter 96® Aqueous One Solution (Promega, Madison, Wis.) to each well; plates were held in the dark at 37° C. for 2 h and then read with a Synergy HT multi-plate reader (Biotek Instruments, Inc., Winooski, Vt.) and analyzed using the Gen5™ software (Biotek Instruments, Inc.). Absorbances from wells containing cell-free medium were used as baselines and were deducted from those of other cell-containing wells. The IC50 value is the concentration of xanthorrhizol required to suppress the net increase in cell number by 50%.
(§2) One-way analysis of variance (ANOVA) and Kruskal-Wallis tests were performed to assess the differences between groups using Prism® 7.0 software (GraphPad Software Inc., San Diego, Calif.). Differences in means were analyzed by Dunnett's multiple comparison test unless specified otherwise. Values were mean±standard error of mean (SEM). Levels of significance were designated as P<0.05. […] The constant-ratio combination design of xanthorrhizol and d-δ-tocotrienol in our study allowed automated creation of the classic isobologram by using the CompuSyn software. CI values lower than 1 indicate synergistic effect of the agents (Tallarida 2006).
(§3) Murine B16 melanoma cells were cultured in Dulbecco's Modified Eagle's Medium (DMEM) supplemented with 10% FBS, 1% penicillin-streptomycin and 0.8% gentamicin. For optimal growth, cells were incubated at 37° C. in a humidified atmosphere of 5% CO2. d-δ-Tocotrienol and xanthorrhizol were pre-dissolved in ethyl alcohol. All treated cultures contained 0.1% (v/v) of ethyl alcohol.

[2] = system: murine B16 melanoma cells; experiment: Cell cycle analysis by flow cytometry (propidium iodide DNA content), B16 cells; type: cell-based; settings: 24-h; for percentage of cells at the G1 phase: mean±SEM, control 56.1±1.6%, no significant change
Procedure: Cells were seeded in 25 cm^2 flasks (Becton Dickinson Labware, Franklin Lakes, N.J.) at 1×10^6 cells (B16) per flask with 3 mL medium/flask and incubated for 24 h. Medium was then decanted and cultures were replenished with fresh medium containing the test agents that had been dissolved in ethyl alcohol. Following an additional 24-h incubation, adherent cells were harvested by trypsinization and pelleted by low speed centrifugation at 500 g for 5 min. Cell pellets were gently fixed in 1 mL of 70% ethanol-PBS mixture at −20° C. overnight and washed with PBS before 5×10^5 cells were re-suspended in 500 μL of PBS containing freshly prepared propidium iodide and RNase A (Roche Diagnostics, Indianapolis, Ind.) and incubated at 37° C. in the dark for 30 min as described (Yeganehjoo, DeBose-Boyd et al. 2017). Aliquots of 200 μL of the stained cells were analyzed for DNA content using a BD LSR Fortessa flow cytometer (BD Biosciences, San Jose, Calif.). The distribution of cells in the G1 and S phases of the cell cycle was determined using MultiCycle AV software (Phoenix Flow Systems, San Diego, Calif.).
as §3
The effect of blends of xanthorrhizol and d-δ-tocotrienol were evaluated on the cell cycle distribution of murine B16 melanoma cells (FIG. 4). At 0-h as baseline, the percentages of cells in the G1, S, and G2 phases of cell cycle were 54.1±0.7%, 27.6±0.4%, and 18.3±0.8% (mean±SEM), respectively. Following a 24-h incubation […], these percentages were relatively stable for the control group (56.1±1.6%, 32.1±0.6% and 11.7±1.9% for G1, S and G2 phases, respectively).

[3] = system: human DU145 prostate carcinoma cells; experiment: Cell growth assay, human DU145 prostate carcinoma cells (CellTiter 96 Aqueous One, 72 h); type: cell-based; settings: for concentration achieving 90% of growth suppression: individual agent (FIG. 6)
Procedure: as §1, §2
Human DU145 prostate carcinoma cells were cultured in Roswell Park Memorial Institute ([…]) medium supplemented with 10% Fetal Bovine Serum (FBS; Fisher Scientific, Houston, Tex.), 1% penicillin-streptomycin (Fisher Scientific), and 0.8% gentamicin (Fisher Scientific).

[4] = system: murine B16 melanoma cells; settings: McAnally, Gupta et al. 2007, read-out: previous reported IC50, concentration required to elicit 50% of growth inhibition; cited from earlier work
[5] = 16.25 μmol/L xanthorrhizol, versus control

Row | SMILES | suppression of the growth of B16 cells ([1]; 10 μmol/L d-δ-tocotrienol applied individually) | suppression of the proliferation of murine B16 melanoma cells ([1]; d-δ-tocotrienol 0-40 μmol/L) | percentage of cells at the G1 phase ([2]; 5 μmol/L d-δ-tocotrienol) | concentration achieving 90% of growth suppression ([3]; DU145 cells) | pIC50 [4] | suppression of the growth of B16 cells ([1]; 16.25 μmol/L xanthorrhizol applied individually) | pIC50 ([1]; B16 cells, 48 h incubation, read-out: IC50, concentration required to elicit 50% of growth inhibition) | suppression of the proliferation of murine B16 melanoma cells ([1]; xanthorrhizol 0-200 μmol/L) | G1/S ratio, indicator of cell cycle arrest [2, 5] | percentage of cells at the S phase [2, 5] | percentage of cells at the G1 phase ([2]; 16.25 μmol/L xanthorrhizol) | pIC50 ([3]; DU145 cells, 72 h incubation, read-out: IC50, suppression of the proliferation of DU145 cells) | suppression of the proliferation of human DU145 prostate carcinoma cells ([3]; xanthorrhizol 0-200 μmol/L)
1 | CC(C)=CCC/C(C)=C/CC/C(C)=C/CC[C@]1(C)CCc2cc(O)cc(C)c2O1 [d-δ-tocotrienol] | ~12% | concentration-dependent suppression | 59.2±1.3% | 32 µmol/L | 4.85 |  |  |  |  |  |  |  | 
2 | CC(C)=CCC[C@@H](C)c1ccc(C)c(O)c1 [xanthorrhizol] |  |  |  | 182 µmol/L |  | approximately 15% | 4.19 | concentration-dependent suppression | significantly higher | decreased | 59.5±0.7% | 4.00 | concentration-dependent suppression
